Reference: patent publication US20110130425A1, “Use of H3 Histaminergic Agonists for the Treatment of Addiction to Drugs of Abuse” (priority 2009, published 2011)
“Also recorded” adds a separate entry of the source.

How the values were obtained:
[1] = system: relapse into cocaine seeking; experiment: Relapse phase: rehabilitation test, relapse induced by a single dose of cocaine; format: in vivo, rat; details: L-histidine 500 mg/kg i.p. one hour before; cocaine 0.5 mg/kg; vs saline; rats
Description: III. Relapse Phase: The relapse phase is studied by using a rehabilitation test. In this phase, the desire of the rats for the drug is again induced by the administration of a single dose of drug. At this instant, the rat again feels the desire to obtain the drug, and so it again begins to press on the lever to obtain the drug, but the drug is not available to the animal.
The behavior of the rats was also studied during the relapse phase, after the animals had gone through the extinction phase. In the extinction phase, the animals received no reward (dose of cocaine) when they pressed the lever. After a minimum of six extinction sessions, lasting 2 hours each session, carried out on consecutive days, the lever-pressing behavior of the rats diminished at least 20 times in comparison to the start of the extinction sessions.
When the number of times that the rats pressed the lever decreased, the animals were subjected to 4 hour rehabilitation sessions (i.e., relapse sessions). These rehabilitation sessions consisted initially of extinction sessions of 3 hours, followed by the automatic release, by an injection, of a saline solution or different doses of cocaine. During the fourth hour, the behavior of the animals was studied in regard to the number of times that they pressed the lever after the administration of the different doses of cocaine (0 mg/kg, 0.5 mg/kg and 2 mg/kg). The number of times that the lever was pressed increased in proportion to the dose of cocaine administered (cocaine at 0.5 mg/kg or 2 mg/kg administered intravenously, or saline in controls) (FIG. 8). However, this increase in the number of times that the animals pressed the lever was not rewarded with the administration of more cocaine. The number of times that the rats pressed the lever was indicative of the rat's need to find the drug. Even so, the pressing of the lever was not rewarded with more cocaine, which differentiates this stage from that corresponding to self-administration. […]

[2] = system: nicotine seeking behavior; experiment: Extinction and reinstatement of nicotine seeking, mouse intravenous operant self-administration; format: in vivo, C57B16/J mice; details: L-histidine 1 g/kg or 2 g/kg; mice
Protocol: L-Histidine solution: L-Histidine (Sigma, H-8000) at a 155.15 g/mol concentration in 0.34 M phosphoric acid is prepared as follows. 1.5 g L-histidine are dissolved in 12 ml of 0.34 M phosphoric acid to obtain a 0.8 M solution of L-histidine at approximately pH 6. pH is verified and 0.1 g of NaCl added to a final concentration of 0.9%. Finally, the L-histidine solution is sterilized by filtration.
Animals: Male C57B16/J mice (Charles River, France) are housed individually in controlled laboratory conditions with the temperature maintained at 21±1° C., humidity at 55±10%, and light reversal cycle (light on at 20.00 h, light off at 08.00 h). Mice are tested during the dark phase of a light reversal cycle. Behavioural tests and animal care are conducted in accordance with the standard ethical guidelines (National Institutes of Health 1995; European Communities Directive 86/609 EEC) and the protocols are approved by the local ethical committee (CEEA-PRBB).
Apparatus: The self-administration experiments are conducted in mouse operant chambers (Model ENV-307A-CT, Medical Associates, Georgia, VT, USA). The experimental chambers are equipped with a house light, ventilator fan, drug infusion pump, liquid swivel with counterbalanced arm, and two manipulanda with cue lights that are located on either side of a food dipper. The manipulanda are holes (1.2 cm diameter). […]
The catheter is flushed daily with a saline solution containing heparin (30 UI/mL) in order to maintain its patency. The patency of intravenous catheters is evaluated periodically (approximately every 6 days) and whenever drug self-administration behavior appears to deviate dramatically from that observed previously. Patency is evaluated by the infusion of 0.1 ml of thiobarbital (5 mg/ml) through the catheter. […]
L-Histidine dosage: The first L-histidine dose is 1 g/kg. […] Dosage for other H3 histaminergic agonists or H3 histaminergic agonist precursors is determined considering the pharmacokinetic and toxicological characteristics of the compound. […]

## N[C@@H](Cc1c[nH]cn1)C(=O)O [L-histidine]
[1]
  lever pressing after relapse induced by a single dose of cocaine: caused a decrease in the pressing on the lever; also recorded: diminished significantly
[2]
  cue-induced reinstatement of nicotine seeking: decreases cue-induced reinstatement
  number of sessions required to achieve the extinction criteria (nicotine): shortens the number of sessions
  responding during the first extinction session (nicotine): decreases or delays responding
